Consider twelve molecules from patent publication US5935932A, “Bradykinin antagonists containing pentafluorophenylalanine” (University Technology Corporation, priority 1998, dated 1999).

For experiment [1], the target named is T1, bradykinin receptors in Rat Uterus (Rattus norvegicus, UniProt P25023).
T1 construct: describes the Rat Uterus assay used to analyze the present compounds; from tissue; host or cells: isolated rat uterus
T1 sequence (P25023 1-396): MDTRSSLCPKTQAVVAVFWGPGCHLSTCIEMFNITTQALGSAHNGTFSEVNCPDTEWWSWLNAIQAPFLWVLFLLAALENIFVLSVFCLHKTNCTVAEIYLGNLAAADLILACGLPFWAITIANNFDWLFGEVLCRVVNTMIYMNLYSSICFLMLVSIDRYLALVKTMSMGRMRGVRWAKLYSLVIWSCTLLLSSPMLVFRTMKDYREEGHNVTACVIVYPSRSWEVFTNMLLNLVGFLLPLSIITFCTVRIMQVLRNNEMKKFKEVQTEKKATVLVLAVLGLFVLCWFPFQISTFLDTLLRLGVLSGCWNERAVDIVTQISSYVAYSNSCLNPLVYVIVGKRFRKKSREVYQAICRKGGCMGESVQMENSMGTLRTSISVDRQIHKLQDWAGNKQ
Briefly: Rat Uterus functional assay. In kind it is cell-based. From the text: 4. Rat Uterus functional assay Trautshold, Handbook of Expt. Pharmacol. […] The Trautshold method was used without changes to the parameters. U.S. Pat. No. 4,693,993, at Column 14, line 10 gives a general description of data analysis for this assay. In this table, I=inhibitor, and numbers in parenthesis are pA2. Agonist activity are given as percent BK activity.

For experiment [2], the target named is T2, bradykinin receptors in Guinea Pig Ileum (Cavia porcellus, UniProt O70526).
T2 construct: describes the Guinea Pig Ileum assay used to analyze the present compounds; from tissue; host or cells: isolated guinea pig ileum
T2 sequence (O70526 1-372): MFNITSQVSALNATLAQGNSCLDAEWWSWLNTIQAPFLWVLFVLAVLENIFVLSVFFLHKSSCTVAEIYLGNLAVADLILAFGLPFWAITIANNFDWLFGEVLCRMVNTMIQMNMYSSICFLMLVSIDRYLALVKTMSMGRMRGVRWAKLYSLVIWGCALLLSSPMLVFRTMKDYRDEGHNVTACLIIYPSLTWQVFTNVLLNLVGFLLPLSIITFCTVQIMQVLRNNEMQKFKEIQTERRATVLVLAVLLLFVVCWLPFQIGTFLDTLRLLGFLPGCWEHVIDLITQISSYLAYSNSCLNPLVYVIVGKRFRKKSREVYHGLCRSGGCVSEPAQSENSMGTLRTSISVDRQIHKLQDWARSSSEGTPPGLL
The experiment can be described thus: Guinea Pig Ileum functional assay. The class given is cell-based. From the text:
5. Guinea Pig Ileum functional assay
Trautshold, Handbook of Expt. Pharmacol. Vol 25, Springer Verlag pp 53-55 (1970) describes the Guinea Pig Ileum assay used to analyze the present compounds. The Trautshold method was used without changes to the parameters. U.S. Pat. No. 4,693,993, at Column 14, line 10 gives a general description of data analysis for this assay.
In this table, I=inhibitor, and numbers in parenthesis are pA2. Agonist activity are given as percent BK activity.

Where [3] appears, read: number in parenthesis is pA2, read-out: Ileum, pA2 (I=inhibitor) (converted).
Where [4] appears, read: Ileum, pA2 (I=inhibitor), number in parenthesis is pA2.

Where two headings read alike, the source gives them in different places. Where a SMILES comes first, the peptide text is derived from it. [ ]: non-standard residue; d: D form. dPhe(F5) = N[C@H](Cc1c(F)c(F)c(F)c(F)c1F)C(=O)O; Oic = O=C(O)[C@@H]1C[C@@H]2CCCC[C@@H]2N1; Igl = N[C@H](C(=O)O)C1Cc2ccccc2C1; Hyp = O=C(O)[C@@H]1C[C@@H](O)CN1; NMeF = CN[C@@H](Cc1ccccc1)C(=O)O

Regarding `N=C(N)NCCC[C@@H](N)C(=O)N[C@@H](CCCNC(=N)N)C(=O)N1CCC[C@H]1C(=O)N1C[C@H](O)C[C@H]1C(=O)NCC(=O)N[C@H](C(=O)N[C@@H](CO)C(=O)N[C@H](Cc1c(F)c(F)c(F)c(F)c1F)C(=O)N1[C@H](C(=O)N[C@@H](CCCNC(=N)N)C(=O)O)C[C@@H]2CCCC[C@@H]21)C1Cc2ccccc2C1` [Compound B10044, DArg-Arg-Pro-Hyp-Gly-Igl-Ser-Df5f-Oic-Arg], the Kb was 7.94 nM in experiment [1] and 3.98 nM in experiment [2] (setting [3]).

Take `N=C(N)NCCC[C@@H](N)C(=O)N[C@@H](CCCNC(=N)N)C(=O)N1CCC[C@H]1C(=O)N1C[C@H](O)C[C@H]1C(=O)NCC(=O)N[C@H](C(=O)N[C@@H](CO)C(=O)N[C@H](Cc1c(F)c(F)c(F)c(F)c1F)C(=O)N[C@H](C(=O)N[C@@H](CCCNC(=N)N)C(=O)O)C1Cc2ccccc2C1)C1Cc2ccccc2C1` [Compound B10056, DArg-Arg-Pro-Hyp-Gly-Igl-Ser-Df5f-Igl-Arg]: the “Uterus, agonist activity as percent BK activity” value in experiment [1] (rat uterus) was found to be 9.5%. Besides, the Kb in experiment [2] (setting [4]) was 10 nM.

As to `N=C(N)NCCC[C@@H](N)C(=O)N[C@@H](CCCNC(=N)N)C(=O)N1CCC[C@H]1C(=O)N1C[C@H](O)C[C@H]1C(=O)NCC(=O)N[C@H](C(=O)N[C@@H](CO)C(=O)N[C@H](Cc1c(F)c(F)c(F)c(F)c1F)C(=O)N[C@@H](Cc1cccs1)C(=O)N[C@@H](CCCNC(=N)N)C(=O)O)C1Cc2ccccc2C1` [Compound B10058, DArg-Arg-Pro-Hyp-Gly-Igl-Ser-Df5f-Thi-Arg], the Kb in experiment [1] was 6.31 nM; in experiment [2] (setting [3]), 12.6 nM.

On to `N=C(N)NCCC[C@@H](N)C(=O)N[C@@H](CCCNC(=N)N)C(=O)N1CCC[C@H]1C(=O)N1C[C@H](O)C[C@H]1C(=O)NCC(=O)N[C@H](C(=O)N[C@@H](CO)C(=O)N[C@H](Cc1c(F)c(F)c(F)c(F)c1F)C(=O)N(CC(=O)N[C@@H](CCCNC(=N)N)C(=O)O)C1CCCCC1)C1Cc2ccccc2C1` [Compound B10112, DArg-Arg-Pro-Hyp-Gly-Igl-Ser-Df5f-NchG-Arg], for which the “Uterus, agonist activity as percent BK activity” value in experiment [1] (rat uterus) was 21%. Further, the Kb in experiment [2] (setting [4]) is 25.1 nM.

On to `N=C(N)NCCC[C@H](NC(=O)[C@@H]1C[C@@H]2CCCC[C@@H]2N1C(=O)[C@@H](Cc1c(F)c(F)c(F)c(F)c1F)NC(=O)[C@H](CO)NC(=O)[C@H](Cc1cccs1)NC(=O)CNC(=O)[C@@H]1CCCN1C(=O)[C@@H]1CCCN1C(=O)[C@H](CCCNC(=N)N)NC(=O)[C@@H](CCCNC(=N)N)NC(=O)[C@H](CCCCN)NC(=O)CCCCCCCCCCC(=O)N[C@@H](CCCCN)C(=O)N[C@H](CCCNC(=N)N)C(=O)N[C@@H](CCCNC(=N)N)C(=O)N1CCC[C@H]1C(=O)N1CCC[C@H]1C(=O)NCC(=O)N[C@@H](Cc1cccs1)C(=O)N[C@@H](CO)C(=O)N[C@H](Cc1c(F)c(F)c(F)c(F)c1F)C(=O)N1[C@H](C(=O)N[C@@H](CCCNC(=N)N)C(=O)O)C[C@@H]2CCCC[C@@H]21)C(=O)O` [Compound B10118, αDDD-(Lys-DArg-Arg-Pro-Pro-Gly-Thi-Ser-Df5f-Oic-Arg)2], for which the values for the Kb in experiment [1] and in experiment [2] (setting [3]) were 7.94 nM and 5.01 nM, respectively.

Consider `N=C(N)NCCC[C@H](NC(=O)[C@H](CCCCN)NC(=O)[C@@H](N)CCCCN)C(=O)N1CCC[C@H]1C(=O)N1C[C@H](O)C[C@H]1C(=O)NCC(=O)N[C@H](C(=O)N[C@@H](CO)C(=O)N[C@H](Cc1c(F)c(F)c(F)c(F)c1F)C(=O)N[C@H](C(=O)O)C1CCCCC1)C1Cc2ccccc2C1` [Compound B10146, Lys-Lys-Arg-Pro-Hyp-Gly-Igl-Ser-Df5f-Chg], for which the “Uterus, activity in words” value in experiment [1] (rat uterus, symbol without number) is on record as “Ag”. Besides, in experiment [2] (setting [4]), the Kb was 1260 nM.

For the molecule `N=C(N)NCCC[C@H](NC(=O)[C@H](CCCCN)NC(=O)[C@@H](N)CCCCN)C(=O)N1CCC[C@H]1C(=O)N1C[C@H](O)C[C@H]1C(=O)NCC(=O)N[C@H](C(=O)N[C@@H](CO)C(=O)N[C@H](Cc1c(F)c(F)c(F)c(F)c1F)C(=O)N1[C@H](C(=O)O)C[C@@H]2CCCC[C@@H]21)C1Cc2ccccc2C1` [Compound B10148, Lys-Lys-Arg-Pro-Hyp-Gly-Igl-Ser-Df5f-Oic], the Kb in experiment [1] was 63.1 nM; in experiment [2] (setting [3]), 1000 nM.

Turning to `CN(C(=O)[C@H](CCCNC(=N)N)NC(=O)[C@H](N)CCCNC(=N)N)[C@@H](Cc1ccccc1)C(=O)N1C[C@H](O)C[C@H]1C(=O)NCC(=O)N[C@H](C(=O)N[C@@H](CO)C(=O)N[C@H](Cc1c(F)c(F)c(F)c(F)c1F)C(=O)N1[C@H](C(=O)N[C@@H](CCCNC(=N)N)C(=O)O)C[C@@H]2CCCC[C@@H]21)C1Cc2ccccc2C1` [Compound B10150, DArg-Arg-NMF-Hyp-Gly-Igl-Ser-Df5f-Oic-Arg] (H-[dR]R[NMeF][Hyp]G[Igl]S[dPhe(F5)][Oic]R-OH; N-terminus and C-terminus assumed), the results for the Kb in experiment [1] and in experiment [2] (setting [3]) were 7.94 nM and 12.6 nM, respectively.

Take `N=C(N)NCCC[C@H](NC(=O)[C@@H]1C[C@@H]2CCCC[C@@H]2N1C(=O)[C@@H](Cc1c(F)c(F)c(F)c(F)c1F)NC(=O)[C@H](CO)NC(=O)[C@@H](NC(=O)CNC(=O)[C@@H]1C[C@@H](O)CN1C(=O)[C@@H]1CCCN1C(=O)[C@H](CCCNC(=N)N)NC(=O)[C@@H](CCCNC(=N)N)NC(=O)C12CC3CC(CC(C3)C1)C2)C1Cc2ccccc2C1)C(=O)O` [Compound B10154, Aca-DArg-Arg-Pro-Hyp-Gly-Igl-Ser-Df5f-Oic-Arg]: the Kb is 6.31 nM in experiment [1] and 12.6 nM in experiment [2] (setting [3]).

In the case of `N=C(N)NCCC[C@H](NC(=O)[C@@H]1C[C@@H]2CCCC[C@@H]2N1C(=O)[C@@H](Cc1c(F)c(F)c(F)c(F)c1F)NC(=O)[C@H](CO)NC(=O)[C@@H](NC(=O)CNC(=O)[C@@H]1C[C@@H](O)CN1C(=O)[C@@H]1CCCN1C(=O)[C@H](CCCNC(=N)N)NC(=O)[C@@H](CCCNC(=N)N)NC(=O)CN(CCCNC(=N)N)CCCNC(=N)N)C1Cc2ccccc2C1)C(=O)O` [Compound B10156, Gun2-bApg-DArg-Arg-Pro-Hyp-Gly-Igl-Ser-Df5f-Oic-Arg], the values for the Kb in experiment [1] and in experiment [2] (setting [3]) were 5.01 nM and 12.6 nM, respectively.

As for `N=C(N)NCCC[C@H](NC(=O)[C@@H]1C[C@@H]2CCCC[C@@H]2N1C(=O)[C@@H](Cc1c(F)c(F)c(F)c(F)c1F)NC(=O)[C@H](CO)NC(=O)[C@@H](NC(=O)CNC(=O)[C@@H]1C[C@@H](O)CN1C(=O)[C@@H]1CCCN1C(=O)[C@H](CCCNC(=N)N)NC(=O)[C@@H](CCCNC(=N)N)NC(=O)[C@H](CCCCN)NC(=O)CCCCCCCCCCC(=O)N[C@@H](CCCCN)C(=O)N[C@H](CCCNC(=N)N)C(=O)N[C@@H](CCCNC(=N)N)C(=O)N1CCC[C@H]1C(=O)N1C[C@H](O)C[C@H]1C(=O)NCC(=O)N[C@H](C(=O)N[C@@H](CO)C(=O)N[C@H](Cc1c(F)c(F)c(F)c(F)c1F)C(=O)N1[C@H](C(=O)N[C@@H](CCCNC(=N)N)C(=O)O)C[C@@H]2CCCC[C@@H]21)C1Cc2ccccc2C1)C1Cc2ccccc2C1)C(=O)O` [Compound B10158, αDDD-(Lys-Darg-Arg-Pro-Hyp-Gly-Igl-Ser-Df5f-Oic-Arg)2], the Kb is 3.16 nM in experiment [1] and 10 nM in experiment [2] (setting [3]).

In the case of `N=C(N)NCCC[C@@H](N)C(=O)N[C@@H](CCCNC(=N)N)C(=O)N1CCC[C@H]1C(=O)N1C[C@H](O)C[C@H]1C(=O)NCC(=O)N[C@@H](Cc1c(F)c(F)c(F)c(F)c1F)C(=O)N[C@@H](CO)C(=O)N[C@@H](C(=O)N1[C@H](C(=O)N[C@@H](CCCNC(=N)N)C(=O)O)C[C@@H]2CCCC[C@@H]21)C1Cc2ccccc2C1` [Compound B10210, DArg-Arg-Pro-Hyp-Gly-f5f-Ser-DIgl-Oic-Arg], in experiment [2] (setting [3]), the Kb is 15.8 nM.
